Assay results: US11433042B2, “Methods and compositions for treating metabolic disorders” (Joslin Diabetes Center, Inc., priority 2017, dated 2022)

Tests used:
WT-1 brown adipocytes = assay: 14C-labeled palmitic acid uptake and oxidation; format: cell-based; details: mature brown adipocytes
Experimental: FA uptake and oxidation were determined by measuring both ^14C-labeled palmitic acid uptake and conversion of ^14C-labeled palmitic acid into CO2. WT-1 brown preadipocytes were differentiated according to a standard adipogenic differentiation protocol for 9 days before cells were serum starved for 1 hour. Cells were treated with 1 μM 12,13-diHOME or methyl acetate vehicle in 0.1% w/v BSA in PBS for 15 minutes before the culture medium was removed, and cells were incubated with DMEM/H containing 4% FA-free BSA w/v in PBS, 0.5 mM palmitic acid, and 0.2 μCi/mL [1-^14C]-palmitic acid (PerkinElmer Life and Analytical Science, Waltham, Mass.) for 1 h. The incubation medium was transferred to a vial containing 1M acetic acid, capped quickly, and allowed to incubate for 1 h for CO2 gas to be released. The CO2 released was absorbed by hyamine hydroxide, and activity was counted. FA oxidation was calculated from CO2 generated. To measure fatty acid uptake, cells were rinsed twice with PBS and lysed after incubation with [1-^14C]-palmitic acid. Lipids were extracted using a chloroform-methanol mixture (2:1), and ^14C-counts were determined in the organic phase. Protein concentrations were determined by using the Pierce BCA kit (Life Technologies) according to instructions, and FA uptake (^14C lipids in the cells) and oxidation (^14CO2 generated) were normalized to protein content. […]

lipoprotein lipase (LPL) = assay: mRNA expression by qPCR in tissue from 12,13-diHOME treated mice; format: in vivo; details: diet-induced obese mice, 2 weeks at 10 μg/kg body weight
Experimental: For the experiments with daily injections of 12,13-diHOME, mice were fed with a high-fat diet containing 60 kcal % fat (Research Diets Stock no. D12492) for 16 weeks prior to treatment and during the course of the experiment. Mice were first injected intraperitoneally daily with 1 ug/kg body weight, 12,13-diHOME in 0.1% BSA w/v in PBS or vehicle and body for one week, then injected every day with 10 ug/kg body weight two weeks. For all experiments, serum was collected and triglycerides were measured using a standard enzymatic assay (ZenBiosystems). Non-esterified FA were also measured with a colorimetric assay (Wako Chemicals USA). High-density and low-density lipoprotein fractions were isolated and cholesterol was measured with a colorimetric assay (Abcam). All mice were allowed ad libitum access to water and food. Total RNA was extracted from tissue with Trizol and purified using a spin column kit (Zymo Research). RNA (500 ng-1 μg) was reverse transcribed with a high-capacity complementary DNA (cDNA) reverse transcription kit (Applied Biosystems). Real-time PCR was performed in mouse tissues starting with 10 ng of cDNA and forward and reverse oligonucleotide primers (300 nM each) in a final volume of 10 μl with SYBR green PCR Master Mix (Roche). Fluorescence was determined and analyzed in an ABI Prism 7900 sequence detection system (Applied Biosystems). […]

mature brown adipocytes = assay: In vitro fatty acid uptake (FFA-SS-Luc) in brown adipocytes constitutively expressing luciferase; format: cell-based, mice; details: 1 μM for 15 minutes, 10 μM FFA-SS-Luc
Experimental: Stromal vascular cells were isolated from interscapular brown adipose tissue dissected from TgLuc mice (Stock no. 008450) obtained from The Jackson Laboratory. Cells were immortalized and differentiated into adipocytes in vitro according to the WT-1 protocol (Tseng, Y. H. et al., Mol. Cell Biol. 24, 1918-1929 (2004)). After 1 hour of serum starvation, mature adipocytes were treated with 1 μM 12,13-diHOME or methyl acetate vehicle in 0.1% w/v BSA in PBS for 15 minutes. After this treatment, cells were incubated with 10 μm FFA-SS-Luc (Intrace Medical) and imaged using the IVIS Spectrum CT using sequential 30 s exposures for 1 hour. Data was analyzed using Living Image Software and movies were assembled from individual images using ImageJ. All cultures were confirmed to be Mycoplasma free.

With `CCCCCC(O)C(O)C/C=C\CCCCCCCC(=O)O` (stereo not shown) [12,13-diHOME, 12,13-dihydroxy-9Z-octadecenoic acid] the “radiolabeled FA uptake” value (WT-1 brown adipocytes; 1 μM for 15 minutes, 14C palmitic acid) was “markedly increased”, the FA oxidation (WT-1 brown adipocytes; 1 μM, 14C palmitic acid to CO2) was “trend to increase” and the “expression of lipoprotein lipase (LPL) in BAT” value (lipoprotein lipase (LPL)) was “increased”. The “FFA-SS-Luc uptake in vitro” value (mature brown adipocytes) was “significantly increased”.
